From ChEMBL document CHEMBL5579899, “Discovery and In Vivo Exploration of 1,3,4-Oxadiazole and α-Fluoroacrylate Containing IL-17 Inhibitors” (J Med Chem, 2024) come the findings set out here.

pIC50: −log10 of the molar value. In brackets after ≈: the same amount, converted by molar mass. A value given as a limit tells only on which side of the number the result lay.

The first series is described as follows: Metabolic stability in rat liver microsomes assessed as intrinsic clearance. It is filed as ADME, Microsome. Conditions: read-out: CLH.
Regarding `COC[C@H](c1cnn2cc([C@@H](Nc3nc(C(C)(F)F)no3)C3CCC(F)(F)CC3)nc2c1)N1C[C@@H](C(F)(F)F)NC1=O`, the microsomal CLint is 18 µL/min/mg.

Regarding `C/C=C(\F)C(=O)N[C@H](c1cn2ncc([C@@H](COC)N3C[C@@H](C(F)(F)F)NC3=O)cc2n1)C1CCC(F)(F)CC1`, the microsomal CLint was 166 µL/min/mg.

On to `COC[C@H](c1cnn2cc([C@@H](Nc3cc(C)on3)C3CCC(F)(F)CC3)nc2c1)N1C[C@@H](C(F)(F)F)NC1=O`, for which the microsomal CLint was 156 µL/min/mg.

For `COC[C@H](c1cnn2cc([C@@H](Nc3cc(OC)ncn3)C3CCC(F)(F)CC3)nc2c1)N1C[C@@H](C(F)(F)F)NC1=O`, the microsomal CLint turned out to be 77 µL/min/mg.

Consider `COC[C@H](c1cnn2cc([C@@H](Nc3nnc(C)n3C)C3CCC(F)(F)CC3)nc2c1)N1C[C@@H](C(F)(F)F)NC1=O`, for which the microsomal CLint was found to be 13 µL/min/mg.

The nature of another series: Equilibrium solubility of compound […] at pH 6.8 by high-throughput analysis. It is filed as physicochemical.
Settings: not given
As to `COC[C@H](c1cnn2cc([C@@H](Nc3nc(C(C)(F)F)no3)C3CCC(F)(F)CC3)nc2c1)N1C[C@@H](C(F)(F)F)NC1=O`, the solubility is 200 µM (≈ 122 µg/mL).

`C/C=C(\F)C(=O)N[C@H](c1cn2ncc([C@@H](COC)N3C[C@@H](C(F)(F)F)NC3=O)cc2n1)C1CCC(F)(F)CC1` gave a solubility of 700 µM (≈ 394 µg/mL).

Consider `COC[C@H](c1cnn2cc([C@@H](Nc3cc(C)on3)C3CCC(F)(F)CC3)nc2c1)N1C[C@@H](C(F)(F)F)NC1=O`, for which the solubility is 600 µM (≈ 335 µg/mL).

`COC[C@H](c1cnn2cc([C@@H](Nc3cc(OC)ncn3)C3CCC(F)(F)CC3)nc2c1)N1C[C@@H](C(F)(F)F)NC1=O`: the concentration in solution (solubility) came to 700 µM (≈ 409 µg/mL). This solubility and that of the compound before are within 1.5-fold of each other.

For the compound `COC[C@H](c1cnn2cc([C@@H](Nc3nnc(C)n3C)C3CCC(F)(F)CC3)nc2c1)N1C[C@@H](C(F)(F)F)NC1=O`, the solubility is over 750 µM.

Another series in a line: Lipophilicity, logD of compound at pH 7.4. It is filed as physicochemical. Conditions: buffer.
`COC[C@H](c1cnn2cc([C@@H](Nc3nc(C(C)(F)F)no3)C3CCC(F)(F)CC3)nc2c1)N1C[C@@H](C(F)(F)F)NC1=O` returned a log distribution coefficient (logD) of 3.5.

`C/C=C(\F)C(=O)N[C@H](c1cn2ncc([C@@H](COC)N3C[C@@H](C(F)(F)F)NC3=O)cc2n1)C1CCC(F)(F)CC1` yielded a logD of 3.

`COC[C@H](c1cnn2cc([C@@H](Nc3cc(C)on3)C3CCC(F)(F)CC3)nc2c1)N1C[C@@H](C(F)(F)F)NC1=O`: the logD stood at 2.9.

As for `COC[C@H](c1cnn2cc([C@@H](Nc3cc(OC)ncn3)C3CCC(F)(F)CC3)nc2c1)N1C[C@@H](C(F)(F)F)NC1=O`, the logD turned out to be 3.2.

Regarding `COC[C@H](c1cnn2cc([C@@H](Nc3nnc(C)n3C)C3CCC(F)(F)CC3)nc2c1)N1C[C@@H](C(F)(F)F)NC1=O`, the logD amounted to 1.5.

The nature of a further series: Inhibition of biotinylated human IL-17A/AF647-labeled human IL-17RA protein-protein interaction preincubated for 30 mins with compound followed by addition of AF647-labeled human IL-17RA incubated for 90 min by TR-FRET assay.
Settings: not given
For the compound `COC[C@H](c1cnn2cc([C@@H](Nc3nc(C(C)(F)F)no3)C3CCC(F)(F)CC3)nc2c1)N1C[C@@H](C(F)(F)F)NC1=O`, the pIC50 was 6.94.

For the compound `C/C=C(\F)C(=O)N[C@H](c1cn2ncc([C@@H](COC)N3C[C@@H](C(F)(F)F)NC3=O)cc2n1)C1CCC(F)(F)CC1`, the pIC50 is 7.72.

Regarding `COC[C@H](c1cnn2cc([C@@H](Nc3cc(C)on3)C3CCC(F)(F)CC3)nc2c1)N1C[C@@H](C(F)(F)F)NC1=O`, the pIC50 was 7.21.

Take `COC[C@H](c1cnn2cc([C@@H](Nc3cc(OC)ncn3)C3CCC(F)(F)CC3)nc2c1)N1C[C@@H](C(F)(F)F)NC1=O`: the pIC50 is 6.13.

Consider `COC[C@H](c1cnn2cc([C@@H](Nc3nnc(C)n3C)C3CCC(F)(F)CC3)nc2c1)N1C[C@@H](C(F)(F)F)NC1=O`, for which the pIC50 was 5.74.

Another series can be described thus: Metabolic stability in human liver microsomes assessed as intrinsic clearance. It is filed as ADME, Microsome. Conditions: read-out: CLH. In general terms: Liver microsomes are a subcellular fraction often used to study metabolism.
For `COC[C@H](c1cnn2cc([C@@H](Nc3nc(C(C)(F)F)no3)C3CCC(F)(F)CC3)nc2c1)N1C[C@@H](C(F)(F)F)NC1=O`, the microsomal CLint turned out to be 18 µL/min/mg.

In the case of `C/C=C(\F)C(=O)N[C@H](c1cn2ncc([C@@H](COC)N3C[C@@H](C(F)(F)F)NC3=O)cc2n1)C1CCC(F)(F)CC1`, the microsomal CLint was determined as 90 µL/min/mg.

In the case of `COC[C@H](c1cnn2cc([C@@H](Nc3cc(C)on3)C3CCC(F)(F)CC3)nc2c1)N1C[C@@H](C(F)(F)F)NC1=O`, the microsomal CLint turned out to be 42 µL/min/mg.

`COC[C@H](c1cnn2cc([C@@H](Nc3cc(OC)ncn3)C3CCC(F)(F)CC3)nc2c1)N1C[C@@H](C(F)(F)F)NC1=O`: the microsomal CLint came to 31 µL/min/mg.

For the compound `COC[C@H](c1cnn2cc([C@@H](Nc3nnc(C)n3C)C3CCC(F)(F)CC3)nc2c1)N1C[C@@H](C(F)(F)F)NC1=O`, the microsomal CLint was 18 µL/min/mg.

A further series is described as follows: Inhibition of IL-6 production in IL-17/TNF-alpha stimulated human NHDF cells incubated for 24 hrs by ELISA. It is filed as functional, cell-based. Conditions: 24 h. In general terms: ELISA stands for enzyme-linked immunosorbent assay.
In turn, `COC[C@H](c1cnn2cc([C@@H](Nc3nc(C(C)(F)F)no3)C3CCC(F)(F)CC3)nc2c1)N1C[C@@H](C(F)(F)F)NC1=O` showed a pIC50 of 6.97.

`C/C=C(\F)C(=O)N[C@H](c1cn2ncc([C@@H](COC)N3C[C@@H](C(F)(F)F)NC3=O)cc2n1)C1CCC(F)(F)CC1` showed a pIC50 of 8.15.

Compound `COC[C@H](c1cnn2cc([C@@H](Nc3cc(C)on3)C3CCC(F)(F)CC3)nc2c1)N1C[C@@H](C(F)(F)F)NC1=O` gave a pIC50 of 7.12.

`COC[C@H](c1cnn2cc([C@@H](Nc3cc(OC)ncn3)C3CCC(F)(F)CC3)nc2c1)N1C[C@@H](C(F)(F)F)NC1=O`: the pIC50 is 6.31.

Compound `COC[C@H](c1cnn2cc([C@@H](Nc3nnc(C)n3C)C3CCC(F)(F)CC3)nc2c1)N1C[C@@H](C(F)(F)F)NC1=O` gave a negative logarithm of the IC50 (pIC50) of 5.57.

A further series in a line: Apparent permeability coefficient of the compound across apical to basolateral side in dog MDCK cells by high-throughput analysis.
Settings: not given
It is filed as ADME, cell-based, Canis lupus familiaris.
As to `COC[C@H](c1cnn2cc([C@@H](Nc3nc(C(C)(F)F)no3)C3CCC(F)(F)CC3)nc2c1)N1C[C@@H](C(F)(F)F)NC1=O`, the Papp A→B was 9.7 ×10⁻⁶ cm/s.

Take `C/C=C(\F)C(=O)N[C@H](c1cn2ncc([C@@H](COC)N3C[C@@H](C(F)(F)F)NC3=O)cc2n1)C1CCC(F)(F)CC1`: the Papp A→B was determined as 9.7 ×10⁻⁶ cm/s.

Regarding `COC[C@H](c1cnn2cc([C@@H](Nc3cc(C)on3)C3CCC(F)(F)CC3)nc2c1)N1C[C@@H](C(F)(F)F)NC1=O`, the Papp A→B turned out to be 3.3 ×10⁻⁶ cm/s.

Take `COC[C@H](c1cnn2cc([C@@H](Nc3cc(OC)ncn3)C3CCC(F)(F)CC3)nc2c1)N1C[C@@H](C(F)(F)F)NC1=O`: the Papp A→B was determined as 11 ×10⁻⁶ cm/s.

For `COC[C@H](c1cnn2cc([C@@H](Nc3nnc(C)n3C)C3CCC(F)(F)CC3)nc2c1)N1C[C@@H](C(F)(F)F)NC1=O`, the Papp A→B was 0.4 ×10⁻⁶ cm/s.

The term solubility denotes how much of the substance goes into solution per volume. A word on the logD: it is lipophilicity at a set pH, counting ionised and neutral species. As usually defined, the pIC50 is −log10 of the IC50, conventionally taken in molar units. One may read the Papp A→B as how fast a substance crosses the layer from the apical side.
